Where two headings read alike, the source gives them in different places.
Legend:
[1] = molecular target: T1, human recombinant serotonin (5-Hydroxytryptamine) 5-HT6 receptor (Homo sapiens, UniProt P50406); experiment: Serotonin 5-HT6 radioligand binding ([3H]LSD); details: read-out: Inhibition of ligand binding, Serotonin 5-HT6 (percent inhibition of specific binding); for inhibition at 1 µM: compound at 1 μM; for inhibition at 0.1 µM: compound at 0.1 μM
T1 construct: expressed in transfected cells; host or cells: human HeLa cells
T1 sequence (P50406 whole entry): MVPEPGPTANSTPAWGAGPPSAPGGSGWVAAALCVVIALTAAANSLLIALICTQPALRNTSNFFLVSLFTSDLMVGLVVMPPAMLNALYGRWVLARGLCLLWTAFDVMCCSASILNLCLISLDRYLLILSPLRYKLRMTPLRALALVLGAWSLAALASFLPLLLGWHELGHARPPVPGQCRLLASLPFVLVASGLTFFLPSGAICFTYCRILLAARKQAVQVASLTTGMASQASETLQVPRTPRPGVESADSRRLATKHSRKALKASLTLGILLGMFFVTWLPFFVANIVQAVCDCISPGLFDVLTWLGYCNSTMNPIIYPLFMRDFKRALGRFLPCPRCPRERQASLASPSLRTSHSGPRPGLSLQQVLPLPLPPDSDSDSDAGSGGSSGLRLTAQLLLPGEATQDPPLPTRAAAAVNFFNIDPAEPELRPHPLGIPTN
Method: Compounds of the invention were incubated with 1.5 nM [3H]Lysergic acid diethylamide (LSD) for 120 min. at 37° C. […] Receptor proteins were filtered and washed, the filters were then counted to determine [3H]LSD specifically bound. Compounds were screened at 1 μM or lower, using 1% DMSO as vehicle. Biochemical assay results are presented as the percent inhibition of specific binding in Table 10.

[2] = molecular target: T2, human recombinant adrenergic α2A receptor (Homo sapiens, UniProt P08913); experiment: Adrenergic α2A radioligand binding ([3H]MK-912); details: compound at 1 μM
T2 construct: expressed in transfected cells; host or cells: insect Sf9 cells
T2 sequence (P08913 1-465): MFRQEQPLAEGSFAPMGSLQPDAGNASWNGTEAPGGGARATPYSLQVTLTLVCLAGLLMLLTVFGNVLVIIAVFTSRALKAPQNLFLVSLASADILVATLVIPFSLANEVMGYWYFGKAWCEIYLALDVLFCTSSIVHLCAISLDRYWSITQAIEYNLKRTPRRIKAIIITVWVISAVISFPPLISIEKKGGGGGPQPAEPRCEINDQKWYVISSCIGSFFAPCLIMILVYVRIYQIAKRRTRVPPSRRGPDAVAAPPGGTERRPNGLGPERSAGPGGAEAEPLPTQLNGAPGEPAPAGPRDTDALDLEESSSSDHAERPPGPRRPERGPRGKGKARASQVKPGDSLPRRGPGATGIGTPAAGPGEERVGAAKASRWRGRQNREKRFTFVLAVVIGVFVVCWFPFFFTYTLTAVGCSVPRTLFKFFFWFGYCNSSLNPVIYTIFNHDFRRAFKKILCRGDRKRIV
Procedure, shortened: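 Sf9-expressed human receptor in 50 mM Tris-HCl pH 7.4, 12.5 mM MgCl2, 2 mM EDTA; compounds at 1 μM or lower (1% DMSO) incubated with 1 nM [3H]MK-912 for 60 min at 25° C. Non-specific binding defined with 10 μM WB-4101; filtered bound radioactivity counted, reported as percent inhibition of specific binding.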

[3] = molecular target: human dopamine D2L receptor (Homo sapiens, UniProt P14416); experiment: Dopamine D2L radioligand binding ([3H]Spiperone); details: compound at 1 μM; for Inhibition of ligand binding, Dopamine D2L: 1 µM
Chain of human dopamine D2L receptor (P14416 whole entry): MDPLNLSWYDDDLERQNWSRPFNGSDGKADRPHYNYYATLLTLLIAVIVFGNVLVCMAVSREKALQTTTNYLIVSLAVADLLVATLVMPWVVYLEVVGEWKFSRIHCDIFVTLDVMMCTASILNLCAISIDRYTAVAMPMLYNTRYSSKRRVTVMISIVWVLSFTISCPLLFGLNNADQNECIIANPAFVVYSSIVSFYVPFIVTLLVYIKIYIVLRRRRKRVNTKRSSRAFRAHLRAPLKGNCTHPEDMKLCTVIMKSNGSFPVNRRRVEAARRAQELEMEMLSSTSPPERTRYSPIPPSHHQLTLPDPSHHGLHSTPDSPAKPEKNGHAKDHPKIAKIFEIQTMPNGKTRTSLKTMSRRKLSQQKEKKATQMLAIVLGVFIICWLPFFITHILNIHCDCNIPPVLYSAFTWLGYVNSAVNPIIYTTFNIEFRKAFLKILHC
From the text: Non-specific binding was estimated in the presence of […] Haloperidol. Receptor proteins were filtered and washed, the filters were then counted to determine [^3H]Spiperone specifically bound. […] Biochemical assay results are presented as the percent inhibition of specific binding in Table 9.

[4] = molecular target: human recombinant serotonin (5-Hydroxytryptamine) 5-HT7 receptor (Homo sapiens, UniProt P34969); experiment: Serotonin 5-HT7 radioligand binding ([3H]LSD); details: compound at 1 μM; read-out: Inhibition of ligand binding, Serotonin 5-HT7 (percent inhibition of specific binding)
Chain of human recombinant serotonin (5-Hydroxytryptamine) 5-HT7 receptor (P34969 whole entry): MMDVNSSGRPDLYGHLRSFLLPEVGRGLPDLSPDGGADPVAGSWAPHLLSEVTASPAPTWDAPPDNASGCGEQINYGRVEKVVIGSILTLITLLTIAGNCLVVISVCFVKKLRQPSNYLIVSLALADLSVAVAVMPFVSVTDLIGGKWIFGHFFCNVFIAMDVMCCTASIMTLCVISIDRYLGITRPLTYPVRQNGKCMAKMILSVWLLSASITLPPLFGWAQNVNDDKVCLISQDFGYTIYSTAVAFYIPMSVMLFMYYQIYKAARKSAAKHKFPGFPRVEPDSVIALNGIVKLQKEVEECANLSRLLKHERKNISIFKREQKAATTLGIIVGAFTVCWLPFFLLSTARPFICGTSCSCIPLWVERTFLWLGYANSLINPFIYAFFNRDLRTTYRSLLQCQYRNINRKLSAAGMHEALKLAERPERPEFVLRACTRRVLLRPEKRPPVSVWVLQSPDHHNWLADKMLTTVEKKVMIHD
From the text: Receptor proteins were filtered and washed, the filters were then counted to determine [^3H]LSD specifically bound.

[5] = molecular target: T3, human recombinant adrenergic α1D receptor (Homo sapiens, UniProt P25100); experiment: Adrenergic α1D radioligand binding ([3H]Prozosin); details: compound at 1 μM
T3 construct: expressed in transfected cells; host or cells: human embryonic kidney (HEK-293) cells
T3 sequence (P25100 1-572): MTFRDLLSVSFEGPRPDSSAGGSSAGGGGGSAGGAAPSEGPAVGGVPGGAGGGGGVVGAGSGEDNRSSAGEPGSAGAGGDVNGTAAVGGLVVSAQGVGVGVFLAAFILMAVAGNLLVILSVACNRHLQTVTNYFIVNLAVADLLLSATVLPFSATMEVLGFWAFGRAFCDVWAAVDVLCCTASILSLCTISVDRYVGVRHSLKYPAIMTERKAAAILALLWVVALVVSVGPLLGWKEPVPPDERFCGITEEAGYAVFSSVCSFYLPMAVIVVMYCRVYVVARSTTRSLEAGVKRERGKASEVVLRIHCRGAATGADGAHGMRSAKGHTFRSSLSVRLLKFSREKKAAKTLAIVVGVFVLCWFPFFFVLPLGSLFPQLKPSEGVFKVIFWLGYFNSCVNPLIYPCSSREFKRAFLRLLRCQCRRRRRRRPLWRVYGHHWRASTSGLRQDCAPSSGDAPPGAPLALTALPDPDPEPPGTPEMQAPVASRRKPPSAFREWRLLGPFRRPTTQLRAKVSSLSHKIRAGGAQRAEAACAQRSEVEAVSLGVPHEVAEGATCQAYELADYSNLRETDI
Method: Compounds of invention were incubated with 0.6 nM [^3H]Prozosin for 60 min. at 25° C. Non-specific binding was estimated in the presence of 10 μM phentolamine. Receptor proteins were filtered and washed, the filters were then counted to determine [^3H]Prozosin specifically bound. Compounds were screened at 1 μM or lower, using 1% DMSO as vehicle. Biochemical assay results are presented as the percent inhibition of specific binding in Table 9.

[6] = percent inhibition of specific binding, read-out: Inhibition of ligand binding, Adrenergic α2A
[7] = percent inhibition of specific binding, read-out: Inhibition of ligand binding, Dopamine D2L
[8] = percent inhibition of specific binding, read-out: Inhibition of ligand binding, Adrenergic α1D
[9] = percent inhibition of specific binding
[10] = read-out: Inhibition of ligand binding, Adrenergic α2A (percent inhibition of specific binding)
[11] = […] [3H]Spiperone, read-out: Inhibition of ligand binding, Dopamine D2L (percent inhibition of specific binding)
[12] = read-out: Inhibition of ligand binding, Adrenergic α1D (percent inhibition of specific binding)

SMILES: CN1CCc2c(c3cc(Cl)ccc3n2CC(O)(c2ccc(F)cc2)C2CCC2)C1 (stereo not drawn) [Compound 177, 2-(8-chloro-2-methyl-3,4-dihydro-1H-pyrido[4,3-b]indol-5(2H)-yl)-1-cyclobutyl-1-(4-fluorophenyl)ethanol]
- inhibition at 1 µM [1]: 100%
- inhibition at 1 µM [2, 6]: 96%
- inhibition at 1 µM [3, 7]: 33%
- inhibition at 1 µM [4]: 42%
- inhibition at 1 µM [5, 8]: 70%

SMILES: CN1CCc2c(c3cc(Cl)ccc3n2/C=C(\c2ccc(F)cc2)C2CC2)C1 [Compound 203, (Z)-8-chloro-5-(2-cyclopropyl-2-(4-fluorophenyl)vinyl)-2-methyl-2,3,4,5-tetrahydro-1H-pyrido[4,3-b]indole]
- inhibition at 0.1 µM [1]: 97%
- inhibition at 1 µM [1]: 103%
- inhibition at 1 µM [2, 6]: 100%
- Inhibition of ligand binding, Dopamine D2L [3, 9]: 78%
- inhibition at 1 µM [3, 7]: 72%
- inhibition at 1 µM [4]: 95%
- inhibition at 1 µM [5, 8]: 89%

SMILES: Cc1ccc2c(c1)c1c(n2CC(O)(c2ccc(F)cc2)C2CCCCC2)CCN(C)C1 (stereo not drawn) [Compound 171, 1-cyclohexyl-2-(2,8-dimethyl-3,4-dihydro-1H-pyrido[4,3-b]indol-5(2H)-yl)-1-(4-fluorophenyl)ethanol]
- inhibition at 0.1 µM [1]: 35%
- inhibition at 1 µM [1]: 93%
- inhibition at 1 µM [2, 6]: 83%
- inhibition at 1 µM [3, 7]: 12%
- inhibition at 1 µM [4]: 42%
- inhibition at 1 µM [5, 8]: 49%

SMILES: C/C(=C\n1c2c(c3cc(C)ccc31)CN(C)CC2)c1ccc(Cl)cc1 [Compound 211, (E)-5-(2-(4-chlorophenyl)prop-1-enyl)-2,8-dimethyl-2,3,4,5-tetrahydro-1H-pyrido[4,3-b]indole]
- inhibition at 0.1 µM [1]: 60%
- inhibition at 1 µM [1]: 98%
- inhibition at 1 µM [2, 6]: 97%
- Inhibition of ligand binding, Dopamine D2L [3, 9]: 49%
- inhibition at 1 µM [3, 7]: 39%
- inhibition at 1 µM [4]: 101%
- inhibition at 1 µM [5, 8]: 96%

SMILES: Cc1ccc2c(c1)c1c(n2C#Cc2ccc(F)cc2)CCN(C)C1 [Compound No. 478, 5-((4-fluorophenyl)ethynyl)-2,8-dimethyl-2,3,4,5-tetrahydro-1H-pyrido[4,3-b]indole]
- inhibition at 1 µM [1]: 97%
- inhibition at 1 µM [2, 10]: 96%
- inhibition at 1 µM [3, 11]: 89%
- inhibition at 1 µM [4]: 96%
- inhibition at 1 µM [5, 12]: 92%

SMILES: CNC(=O)c1ccc2c(c1)c1c(n2C#Cc2ccc(F)cc2)CCN(C)C1 [Compound No. 483, 5-((4-fluorophenyl)ethynyl)-N,2-dimethyl-2,3,4,5-tetrahydro-1H-pyrido[4,3-b]indole-8-carboxamide]
- inhibition at 1 µM [1]: 53%
- inhibition at 1 µM [2, 10]: 77%
- inhibition at 1 µM [3, 11]: 37%
- inhibition at 1 µM [4]: 16%
- inhibition at 1 µM [5, 12]: 59%

SMILES: Cc1ccc2c(c1)c1c(n2CC(O)(c2ccccc2)c2ccc(F)cc2)CCN(C)C1 (stereo not drawn) [Compound No. 176, 2-(2,8-dimethyl-3,4-dihydro-1H-pyrido[4,3-b]indol-5(2H)-yl)-1-(4-fluorophenyl)-1-phenylethanol]
- inhibition at 1 µM [1]: 82%
- inhibition at 1 µM [2, 6]: 94%
- inhibition at 1 µM [3, 7]: 6%
- inhibition at 1 µM [4]: 65%
- inhibition at 1 µM [5, 8]: 42%

SMILES: CN1CCc2c(c3cc(Cl)ccc3n2CC(C)(O)c2ccc(F)cc2)C1 (stereo not drawn) [Compound 45, 1-(8-chloro-1,2,3,4-tetrahydro-2-methylpyrido[4,3-b]indol-5-yl)-2-(4-fluorophenyl)propan-2-ol]
- inhibition at 0.1 µM [1]: 48%
- inhibition at 1 µM [1]: 94%
- inhibition at 1 µM [2, 6]: 89%
- inhibition at 1 µM [3, 7]: 34%
- inhibition at 1 µM [4]: 92%
- inhibition at 1 µM [5, 8]: 61%

SMILES: C/C(=C\n1c2c(c3cc(Cl)ccc31)CN(C)CC2)c1ccccc1 [compound 106, (E)-8-chloro-2,3,4,5-tetrahydro-2-methyl-5-(2-phenylprop-1-enyl)-1H-pyrido[4,3-b]indole]
- inhibition at 1 µM [1]: 104%
- inhibition at 1 µM [2, 6]: 93%
- inhibition at 1 µM [3, 7]: 90%
- inhibition at 1 µM [4]: 98%
- inhibition at 1 µM [5, 8]: 92%

From US8906925B2, “Pyrido[4,3-B]indoles containing rigid moieties” (Medivation Technologies, Inc., priority 2008, dated 2014)
